# Laboratory results: US20060167229A1, “Biologically active peptide conjugates” (priority 2002, published 2006)
# Marks after values point to notes of the source that are not given here. Ends that are not written are not given here.
# B1: IFN-γ: recombinant mouse IFN-γ (rmIFN-γ), Beijing Biotech Inc.; positive control (protein, UniProt P01580 23-155, looked up)
# Interferon gamma: HGTVIESLESLNNYFNSSGIDVEEKSLFLDIWRNWQKDGDMKILQSQIISFYLRLFEVLKDNQAISNNISVIESHLITTFFSNSKAKKDAFMSIAKFEVNNPQVQRQAFNELIRVVHQLLPESSLRKRKRSRC
# Legend:
# NK cell = NK cell activity in mice with ascitic fluid type liver cancer H22; assay type: in vivo, BALB/c mice; settings: saline 24.0 ± 8.2
# Protocol: Healthy BALB/c mice were randomised into peptide group, rmIFN-γ group, rhIL-2 group, and saline group, 15 mice per group, and prepared into H22 carrying mice model as described in section Method 3. After implantation of the cancer cells, the test substances were administered for 15 days, the mice were killed by cervical dislocation. The spleen was isolated aseptically and manually dispersed in cold D-Hank's solution using an injection needle. The dispersed cell suspension was further sieved through a 100-gauge 150 μm diameter stainless steel sieve. After centrifugation at 200 g for 10 minutes, the supernatant was discarded. The cell pellet was re-suspended in 10 volume of Tris-NH4Cl buffer and then kept standing still for 10 minutes at room temperature. The suspended cells were collected by centrifugation at 150 g for 10 minutes. The cells were washed 2-4 times with cold D-Hank's solution by re-suspending and collecting by centrifugation with condition as described above. The washed cells were then diluted to the desired cell densities by RPMI-1640 culture medium, containing 10% fetal bovine serum.
# Mice spleen cells were prepared to 4×10^6/ml as described in section 4.1 above. Target cells YAC-1 were brought to log phase and adjusted to 1×10^5/ml. Using a 96 wells cell culture plate, 100 μl mouse spleen cells and 100 μl culture medium were added to the control well containing only the spleen cells; 100 μl target cells and 100 μl culture medium were added to the control well containing only target cells; 100 μl mouse spleen cells and 100 μl target cells were added to the NK activity assay well. Three parallel sets of the above were prepared per mouse. After that, the 96 wells cell culture plates were incubated for 4 hrs at 37° C., 5% CO2.
# Samples were centrifuged at 150 g for 10 minutes to collect the cells. The supernatant was discarded and 50 μl/well MTT of 1 mg/ml was added. The reaction-mixture was then shaken for 2 minutes, and incubated at 37° C., 5% CO2 for 4 hours. The supernatant was discarded after centrifugation at 150 g for 10 minutes. 120 μl 40 mM HCl-2-propanol was added and shaken for 3 minutes. An ELISA reader was used to obtain OD570 nm of each well referenced at 630 nm.
# The NK cell activity index of each mouse was obtained by first deriving the average OD of the three parallel wells of each combination, then applying this average OD to the following formula: NK cell activity index=[1−(average OD of spleen and target cell well−average OD of spleen cell only well)÷(average OD of target cell only well)]×100% 5. The Effect of Peptides on the Survival of DBA/2 Mice with Transplanted L1210 Leukemia
# L1210 leukemia = assay: Survival of mice with transplanted L1210 leukemia; assay type: in vivo, DBA/2 mice; settings: for Survival days: saline 16.6 ± 5.6
# Protocol: (§1) Intraperitoneal injection, once per day. […] Treatment of all groups with testing substance lasted for 30 days or until the animal died unless otherwise specified.
# Stock L1210 cells were incubated in DMEM/F12 medium supplemented with 10% fetal bovine serum, 37° C./5% CO2 for 72 hrs, then washed 3-4 times with Hank's solution, and adjusted to […]. 0.1 ml of the cell suspension was implanted into the abdominal cavity of several healthy DBA mice for 6-8 days. The mice were then killed by cervical vertebra dislocation and their ascitic fluid collected aseptically. The cell concentration of the collected ascitic fluid was adjusted to 1×10^5 per ml with Hank's solution. 0.1 ml of the cell suspension was implanted into each of the testing animal and the survival data of the animals recorded. Treatment started in the testing animals as described in section Method 1. Mean survival day was obtained by the Kaplan-meier method in the Survival option of the SPSS software. If the animal survived longer than the experiment, the survival days was entered as the duration of the experiment. The survival index was calculated according to the following formula: Survival index=(mean survival days of treatment group−mean survival days of control group)÷mean survival days of control group 6. The Effect of Peptides on the Humoral Immunity of C57BL/6 Mice Bearing Transplanted B16 Melanoma and that on the Metastatic Potential of the Inoculated Melanoma Cells
# [1] = system: ascitic fluid type liver cancer H22; assay: Survival of mice with transplanted ascitic fluid type liver cancer H22; assay type: in vivo, BALB/c mice; settings: for Survival days: saline 26.2 ± 6.8
# Protocol: as §1
# Stock H22 cells were incubated in DMEM/F12 medium supplemented with 10% fetal bovine serum, 37° C./5% CO2 for 72 hrs, then washed 3-4 times with Hank's solution at room temperature. Adjust cell concentration to 1-2×10^9 per litre with Hank's solution. 0.2 ml of the cell suspension was implanted to the abdominal cavity of several BALB/c mice for 6-8 days. The mice were killed by cervical vertebra dislocation. Ascitic fluid of the mice was collected aseptically and the cell concentration adjusted to 1×10^6 per ml with Hank's solution. 0.2 ml of the cell suspension was implanted into the abdominal cavity of healthy mice to generate the H22 carrying mouse model for ascitic fluid type liver cancer. Administration of test substance started as described in section Method 1. Survival data of the mice was recorded. If the animal survived longer than the experiment, the survival days was recorded as the duration of the experiment. Mean survival day was obtained by the Kaplan-meier method in the Survival option of the SPSS software. The survival index was calculated according to the following formula: Survival index=(mean survival days in treatment group−mean survival days of control group)÷mean survival days of control group×100% 4. The Effect of Peptides on the Cellular Immunity of BALB/c Mice with Transplanted Ascitic Fluid Type Liver Cancer H22 4.1 Preparation of Spleen Cell Suspension^[1,4]
# B16 melanoma = assay: Melanoma lung metastasis foci after inoculation of B16 melanoma cells; assay type: in vivo, C57BL/6 mice
# Protocol: Intraperitoneal injection, once per day. […] Treatment of all groups with testing substance lasted for 30 days or until the animal died unless otherwise specified. […] The cell concentration was adjusted to 1×10^5 per ml with Hank's solution and 0.1 ml of the cell suspension was injected via the tail vein into the testing mice to generate the B16 melanoma bearing animal model. Treatment with test substance started as described in section Method 1. […] Postmortem Examination of the Animals was Performed. The Pathological Changes were Recorded, and the Numbers of Melanoma Lung Metastasis Foci Were Counted. Results
# [2] = dose 0.5 μg/kg i.p. once per day
# [3] = dose 50 μg/kg i.p. once per day
# [4] = controls: IL-2, IFN-γ 3 × 10^5 IU/kg, cyclophosphamide 20 mg/kg
molecule,measurement,setting,value
FNFVPP [CMS003],NK activity index (%),NK cell; dose 500 μg/kg,37.9 ± 14.5*^^$ %
VGMGQKDSY,Survival index (%),L1210 leukemia; [2],26.8%
same,Survival days,L1210 leukemia; [2],21.1 ± 5.8 days
Phe Gln Gln Gln (FQQQ; printed: Phe Gln Gln Gln) [CMS032],NK activity index (%),NK cell; dose 5 μg/kg,52.6 ± 12.5*^^$& %
same,NK activity index (%),NK cell; dose 50 μg/kg,41.0 ± 18.7*^^$& %
same,Survival index (%),[1]; [2],63.3%
same,Survival days,[1]; [2],42.8 ± 12.2*^^&$ days
Tyr Ser Leu (YSL; listed as Sus scrofa) [CMS024],NK activity index (%),NK cell; dose 0.5 μg/kg,39.3 ± 18.7*^$ %
same,NK activity index (%),NK cell; dose 5 μg/kg,34.9 ± 12.1*^^$ %
same,NK activity index (%),NK cell; dose 50 μg/kg,43.6 ± 13.9*^^$& %
same,postmortem examination of the mice surviving longer than 90 days,[1]; 0.5 μg/kg/day,did not show sign of tumor establishment
same,mice that could survive longer than 90 days,"[1]; 0.5 μg/kg/day, n=6, two months after the experiment ended",more than 30%
same,Survival index (%),[1]; [2],76.9%
same,Survival days,[1]; [2],46.4 ± 14.8*^^&$ days
same,Survival index (%),[1]; dose 5 μg/kg i.p. once per day,54.8%
same,Survival days,[1]; dose 5 μg/kg i.p. once per day,40.6 ± 14.6*^&$ days
same,Survival index (%),[1]; [3],38.4%
same,Survival days,[1]; [3],36.3 ± 12.7*^&$ days
IGMESAGIHETTY [CMS016],"B16 metastatic foci in the lung, postmortem examination",B16 melanoma; 5 μg/kg/day,did not show any sign of existence of B16 metastatic foci in the lung
same,"B16 metastatic foci in the lung, postmortem examination",B16 melanoma; 500 μg/kg/day,did not show any sign of existence of B16 metastatic foci in the lung
Phe Val Asn Asp (FVND; listed as Sus scrofa) [CMS035],Survival index (%),L1210 leukemia; [2],76.1%
same,Survival days,L1210 leukemia; [2],29.3 ± 15.4 days
KAVGHLDDLPGAL [CMS008],"B16 metastatic foci in the lung, postmortem examination",B16 melanoma; 0.5 μg/kg/day,did not show any sign of existence of B16 metastatic foci in the lung
same,"B16 metastatic foci in the lung, postmortem examination",B16 melanoma; 5 μg/kg/day,did not show any sign of existence of B16 metastatic foci in the lung
same,"B16 metastatic foci in the lung, postmortem examination",B16 melanoma; 50 μg/kg/day,did not show any sign of existence of B16 metastatic foci in the lung
same,Survival index (%),[1]; dose 5 μg/kg i.p. once per day,67.8%
same,Survival days,[1]; dose 5 μg/kg i.p. once per day,50.7 ± 20.9*^& days
Pro Gln Asn Phe (PQNF; printed: Pro Gln Asn Phe) [CMS034],NK activity index (%),NK cell; dose 50 μg/kg,57.3 ± 17.9*^^$& %
RVAPQQHPTL [CMS011],Survival index (%),[1]; dose 5 μg/kg i.p. once per day,60.2%
same,Survival days,[1]; dose 5 μg/kg i.p. once per day,36.4 ± 22.2*^& days
B1,NK activity index (%),NK cell; [4],20.9 ± 3.3%
same,Survival days,L1210 leukemia; [4],15.6 ± 2.2 days
same,Survival index (%),[1]; control rmIFN-γ 3 × 10^5 IU/kg,6.1%
same,Survival days,"[1]; controls: rhIL-2, rmIFN-γ 3 × 10^5 IU/kg, cyclophosphamide 20 mg/kg",27.8 ± 7.5 days
